# Results reported in publication PMC11459966, “Oral pharmacokinetics and efficacy of oral phospholipid remdesivir nucleoside prodrugs against SARS-CoV-2 in mice” (Antimicrobial Agents and Chemotherapy, 2024).
# “Also recorded” adds a separate entry of the source. Read-outs that look alike come from different tables or passages of the source.
# Tests used:
# [1] = set-up: method as in PMID 38776389; details: twice daily oral 30 mg/kg doses, BALB/c mice ref 10; cited from earlier work
# [2] = test system: SARS-CoV-2 isolate USA-WA1/2020; assay: microbe, parasite or virus in culture; details: for EC50: Severe acute respiratory syndrome coronavirus 2, read-out: EC50 μM ± SD; for EC90: Severe acute respiratory syndrome coronavirus 2, read-out: EC90 μM ± SD
# [3] = 5-day oral tolerability study with terminal pharmacokinetics in BALB/c mice; type: in vivo; details: 80 mg/kg or 100 mg/kg daily PO
# Procedure: (§1) Fig 3 Oral RVn prodrugs maintain high serum levels after repeated dosing in mice and hamsters. Multiple-dose oral tolerability and pharmacokinetics in mice and Syrian hamsters: (A and B) 5-day oral tolerability study in BALB/c mice with pharmacokinetics obtained after the final dose. Male 20–22 g mice were given the indicated drugs at (A) 80 mg/kg or (B) 100 mg/kg PO daily in 0.1 M sodium carbonate/bicarbonate pH 9 for 5 days. Plasma was obtained after the last dose at 1, 3, 6, and 12 h (In Vivo Technologies, Moffatt Field, CA). (C) 7-day oral tolerability study in Syrian hamsters with pharmacokinetics obtained after the final dose. […] All plasma samples were analyzed to determine prodrug levels (Aliri Bio, Colorado Springs, CO).
# After fortification, 50 µL of plasma was crashed with 400 µL of methanol containing 10 ng/mL of the internal standard (V2066). One hundred fifty microliters of the supernatant was removed and diluted with 150 µL of water in a clean 96 well injection plate.
# Chromatography for the prodrugs was performed on a Raptor Biphenyl (2.1 × 50) column at a flow rate of 0.5 mL/min. A gradient method starting at 60% B (0.1% formic acid in 90:10 methanol:acetonitrile) for 30 s and then ramping to 95% B over 2.5 min. This composition was held for 1.0 min before being returned to starting conditions and re-equilibration to 40% A (10 mM ammonium formate with 0.2% formic acid in water).
# Oral pharmacokinetic studies were carried out at In Vivo Technologies (Moffatt Field, CA) in male BALB/c mice, 22–23 g under IACUC protocol number IVT-11–010Y12 (LifeSource Animal Care and Use Committee). […] Blood was obtained by facial vein or terminal cardiac puncture at the indicated times and plasma was frozen for analysis. Similar procedures were followed for 5-day tolerability and terminal dose pharmacokinetic studies in mice at oral daily doses of 80 or 100 mg/kg.
# [4] = Single dose PO or IV plasma pharmacokinetics and tolerability in BALB/c mice; details: for tolerability of single escalating oral doses: 20, 60 or 180 mg/kg single oral dose
# [5] = Cell viability assay (CellTiter-Glo), Vero-TMPRSS2; type: cell-based, African green monkey; details: African green monkey, Vero-TMPRSS2 cells, 48 h incubation
# Procedure: (§2) Cell viability assays (Table 1) were performed as previously described ([7]). Cells were cultured and seeded as per in vitro antiviral studies in opaque walled 96-well cell culture plates and incubated overnight for Huh7.5, A2T2-A549, and Vero-E6-TMPRSS2 cells and for 2 days for Calu-3 cells. Compounds or controls were added at the indicated concentrations in a total volume of 100 µL, and cells were incubated for 48 h. An equal volume of CellTiter-Glo reagent (Promega, Cat. #G7570) or CellTiter-Glo 2.0 reagent (Promega, Cat. #G9241) was added and mixed, and luminescence was recorded on a Veritas Microplate Luminometer (Turner BioSystems) or a Spark Multimode plate reader (Tecan) according to manufacturer instructions. Percent viability was normalized to DMSO controls, and CC50 values were derived from best fit curves calculated in Prism 10.
# [6] = test system: SARS-CoV-2 isolate USA-WA1/2020; assay: microbe, parasite or virus in culture
# Calu-3 cells = test system: Calu-3 cells; set-up: method as in PMID 37040439; details: Calu-3, CellTiter-Glo, previously published, identical conditions ref 7; cited from earlier work
# [7] = test system: SARS-CoV-2 isolate USA-WA1/2020; assay: microbe, parasite or virus in culture; type: cell-based; details: for EC50 / EC90: Calu-3 cells, 44–48 hpi
# [8] = test system: SARS-CoV-2 isolate USA-WA1/2020; set-up: method as in PMID 37040439; details: Calu-3, dotted lines of Fig. 2 and 3 ref 7; read-out: in vitro EC90 for SARS-CoV-2 infection in Calu-3 cells; cited from earlier work
# [9] = Cell viability assay (CellTiter-Glo), A2T2-A549; details: human, A2T2-A549 cells
# in vivo = details: male, BALB/c, mouse
# [10] = test system: SARS-CoV-2 isolate USA-WA1/2020; assay: microbe, parasite or virus in culture; remark: listed apart in the source
# [11] = 7-day oral tolerability study with terminal pharmacokinetics in Syrian hamsters; type: in vivo; details: 100 mg/kg PO daily, 7 days
# Procedure: as §1
# A 7-day oral tolerability and terminal pharmacokinetic study in 100–125 g male Syrian hamsters were done at Attentive Sciences (Stillwell, KS), under IACUC approval number 1123–6788. […] Daily clinical observation and weights were obtained. After the day 7 oral dose blood was obtained at the indicated times and plasma was frozen for analysis.
# [12] = test system: SARS-CoV-2 isolate USA-WA1/2020
# Vero-TMPRSS2 cells = assay: Cell viability assay (CellTiter-Glo), Vero-TMPRSS2; type: cell-based, African green monkey; details: 48 h incubation
# Procedure: as §2
# [13] = test system: SARS-CoV-2 isolate USA-WA1/2020; remark: listed apart in the source
# A2T2-A549 cells = assay: Cell viability assay (CellTiter-Glo), A2T2-A549; details: A2T2-A549, CellTiter-Glo, 48 h incubation
# Huh7.5 cells = test system: Huh7.5 cells; set-up: method as in PMID 37040439; details: Huh7.5, CellTiter-Glo, previously published, identical conditions ref 7; cited from earlier work
# [14] = test system: SARS-CoV-2 isolate USA-WA1/2020; remark: listed apart in the source
# [15] = male, BALB/c, mouse, in vivo, iv, 7 mg/kg
# [16] = male, BALB/c, mouse, in vivo, po, 20 mg/kg
# [17] = male, BALB/c, mouse, in vivo, po, 60 mg/kg
# [18] = male, BALB/c, mouse, in vivo, po, 180 mg/kg
# [19] = Severe acute respiratory syndrome coronavirus 2
# [20] = IV, 7 mg/kg, BALB/c mice, plasma
structure (smiles),measurement,setting,value
"CC(C)C(=O)OC[C@H]1O[C@@](C#N)(c2ccc3c(N)ncnn23)[C@H](O)[C@@H]1O [Obeldesivir GS-5245, reference compound]",daily systemic exposure,[1],108 µM·h
same,EC50,[2],1.2 ± 0.084 µM
same,EC90,[2],1.89 ± 0.46 µM
"CCCCCCCCCCCCCCCCCCOC[C@H](COP(=O)(O)OC[C@H]1O[C@@](C#N)(c2ccc3c(N)ncnn23)[C@H](O)[C@@H]1O)OCc1ccccc1 [Compound V2043, 1-O-octadecyl-2-O-benzyl-sn-glyceryl-P-RVn]",tolerability of once-daily oral doses for 5 days,[3],no adverse clinical effects were noted
same,tolerability of single escalating oral doses,[4]; BALB/c mice,well tolerated with no appreciable adverse effects
same,AUC,[4]; [15],46.6 µM·h
same,Cmax,[4]; [15],96.6 µM
same,AUC,[4]; [16],90.1 µM·h
same,Cmax,[4]; [16],10.6 µM
same,AUC,[4]; [17],199 µM·h
same,Cmax,[4]; [17],20.3 µM
same,AUC,[4]; [18],211 µM·h
same,Cmax,[4]; [18],17 µM
same,CC50 at 48 h,[5],82600 nM
same,EC50,"[6]; Severe acute respiratory syndrome coronavirus 2, Vero/TMPRSS2, read-out: EC50 μM ± SD",0.104 ± 0.03 µM
same,EC90,"[6]; Severe acute respiratory syndrome coronavirus 2, Vero/TMPRSS2, read-out: EC90 μM ± SD",0.248 ± 0.052 µM
same,CC50,Calu-3 cells,58300 nM
same,EC50,[7]; [19],0.168 ± 0.074 µM
same,EC90,[7]; [19],0.484 ± 0.142 µM
same,EC90,[8],320 nM
same,CC50 at 48 h,[9],> 100000 nM
same,EC50,[2],0.566 ± 0.028 µM
same,EC90,[2],1.62 ± 0.227 µM
same,half-life,"in vivo; iv, 7 mg/kg",0.7 h
same,CL/F,"in vivo; po, 20 mg/kg",4.35 mL/min/kg
same,Vd/F,"in vivo; po, 20 mg/kg",1.68 L/kg
same,half-life,"in vivo; po, 20 mg/kg",4.46 h
same,CL/F,"in vivo; po, 60 mg/kg",5.57 mL/min/kg
same,Vd/F,"in vivo; po, 60 mg/kg",3.04 L/kg
same,half-life,"in vivo; po, 60 mg/kg",6.31 h
same,CL/F,"in vivo; po, 180 mg/kg",14.1 mL/min/kg
same,Vd/F,"in vivo; po, 180 mg/kg",8.61 L/kg
same,half-life,"in vivo; po, 180 mg/kg",7.06 h
same,EC50,"[10]; Severe acute respiratory syndrome coronavirus 2, Huh7.5, read-out: EC50 μM ± SD",0.117 ± 0.009 µM
same,EC90,"[10]; Severe acute respiratory syndrome coronavirus 2, Huh7.5, read-out: EC90 μM ± SD",0.293 ± 0.042 µM
same,tolerability of seven-day once-daily oral dosing,[11],well tolerated without any appreciable toxicity; also recorded: No ill effects were reported
CCCCCCCCC=CCCCCCCCCOCC(COP(=O)(O)OCC1OC(C#N)(c2ccc3c(N)ncnn23)C(O)C1O)OCc1ccc(OC)c(F)c1 (centres unmarked) [Compound V2053],Relative activity vs RVn (RVN EC50/Test Compound EC50),[12]; Vero-TMPRSS2,8.0×
same,SI (CC50/EC50),[12]; Vero-TMPRSS2,>746
same,EC50,"[12]; read-out: EC50 μM ± SD, Vero-TMPRSS2 cells, 32 hpi",0.134 ± 0.05 µM
same,EC90,"[12]; read-out: EC90 μM ± SD, Vero-TMPRSS2 cells, 32 hpi",0.367 ± 0.139 µM
same,tolerability of once-daily oral doses for 5 days,[3],no adverse clinical effects were noted
same,tolerability of single escalating oral doses,[4]; BALB/c mice,well tolerated with no appreciable adverse effects
same,AUC,[4]; [20],9.58 µM·h
same,Cmax,[4]; [20],30.2 µM
same,T1/2,[4]; [20],0.29 h
same,AUC,"[4]; Oral, 20 mg/kg, BALB/c mice",13.60 µM·h
same,CL/F,"[4]; Oral, 20 mg/kg, BALB/c mice",28 mL/min/kg
same,Cmax,"[4]; Oral, 20 mg/kg, BALB/c mice",1.78 µM
same,T1/2,"[4]; Oral, 20 mg/kg, BALB/c mice",6.04 h
same,Vd/F,"[4]; Oral, 20 mg/kg, BALB/c mice",14.60 L/kg
same,AUC,"[4]; Oral, 60 mg/kg, BALB/c mice",53.10 µM·h
same,CL/F,"[4]; Oral, 60 mg/kg, BALB/c mice",22.3 mL/min/kg
same,Cmax,"[4]; Oral, 60 mg/kg, BALB/c mice",7.66 µM
same,T1/2,"[4]; Oral, 60 mg/kg, BALB/c mice",3.44 h
same,Vd/F,"[4]; Oral, 60 mg/kg, BALB/c mice",6.67 L/kg
same,AUC,"[4]; Oral, 180 mg/kg, BALB/c mice",90.80 µM·h
same,CL/F,"[4]; Oral, 180 mg/kg, BALB/c mice",30.2 mL/min/kg
same,Cmax,"[4]; Oral, 180 mg/kg, BALB/c mice",12.5 µM
same,T1/2,"[4]; Oral, 180 mg/kg, BALB/c mice",7.06 h
same,Vd/F,"[4]; Oral, 180 mg/kg, BALB/c mice",18.50 L/kg
same,F% (oral bioavailability),"[4]; oral vs IV (7 mg/kg) prodrug exposure, printed on the 20 mg/kg oral lines, BALB/c mice",51.0%
same,CC50,Vero-TMPRSS2 cells,> 100000 nM
same,Relative activity vs RVn (RVN EC50/Test Compound EC50),[13]; A2T2-A549,7.3×
same,SI (CC50/EC50),[13]; A2T2-A549,>243
same,EC50,"[13]; read-out: EC50 μM ± SD, A2T2-A549 cells, 48 hpi",0.41 ± 0.04 µM
same,EC90,"[13]; read-out: EC90 μM ± SD, A2T2-A549 cells, 48 hpi",0.811 ± 0.059 µM
same,CC50,Calu-3 cells,58700 nM
same,Relative activity vs RVn (RVN EC50/Test Compound EC50),[7]; Calu-3,9.0×
same,EC50,[7],0.074 ± 0.014 µM
same,EC90,[7],0.153 ± 0.047 µM
same,EC90,[8],154 nM
same,CC50,A2T2-A549 cells,> 100000 nM
same,CC50,Huh7.5 cells,> 100000 nM
same,Relative activity vs RVn (RVN EC50/Test Compound EC50),[14]; Huh7.5,28.9×
same,SI (CC50/EC50),[14]; Huh7.5,">2,128"
same,EC50,"[14]; read-out: EC50 μM ± SD, Huh7.5 cells, 48 hpi",0.047 ± 0.015 µM
same,EC90,"[14]; read-out: EC90 μM ± SD, Huh7.5 cells, 48 hpi",0.136 ± 0.058 µM
